Assay results reported in patent US20100093612A1, “INTEGRIN TARGETED CYCLOPEPTIDE LIGANDS, THEIR PREPARATION AND USE” (priority 2007, published 2010).

Assays:
[1] = target: T1, αvβ3 integrin receptor (Homo sapiens, UniProt P05106+P06756); test: Solid-phase receptor-binding assay, competition with [125I]-echistatin, αvβ3; conditions: IC50 in the receptor high-affinity state; IC50±SD, average of three or more independent determinations; 0.05 nM [125I]echistatin
T1 construct: purchased Chemicon International Inc., Temecula, Calif
Protocol: (§1) Integrin-coated 96-well plates were incubated with the ligand in the presence of serially diluted competing compounds.
(§2) Solid-Phase Receptor-Binding Assay (General Procedure). The receptor binding assays were performed as described previously (Kumar, C. C.; et al. J. Pharmacol. Exp. Ther. 1997, 283, 843). Purified αvβ3 and αvβ5 receptors (Chemicon International Inc., Temecula, Calif.) were diluted to 500 ng/mL and 1000 ng/mL, respectively, in coating buffer [20 mM Tris-HCl (pH 7.4), 150 mM NaCl, 2 mM CaCl2, 1 mM MgCl2 and 1 mM MnCl2]. An aliquot of diluted receptors (100 μL/well) was added to 96-well microtiter plates and incubated overnight at 4° C. Coating solution was removed and 200 μL of blocking solution (coating buffer plus 1% BSA) were added to the wells and incubated for additional 2 h at room temperature. After incubation, the plates were rinsed three times with 200 μL of blocking-binding solution and incubated for 3 h at room temperature with 0.05 nM and 0.1 nM [^125I]Echistatin (Amersham Pharmacia) for αvβ3 and αvβ5 receptor binding assays, respectively. After incubation, the plates were sealed and counted in the γ-counter (Packard).

[2] = target: T2, αvβ5 integrin receptor (Homo sapiens, UniProt P06756+P18084); test: Solid-phase receptor-binding assay, competition with [125I]-echistatin, αvβ5; conditions: IC50±SD, average of three or more independent determinations, 0.1 nM [125I]echistatin
T2 construct: purchased Chemicon International Inc., Temecula, Calif
Protocol: as §1, §2

[3] = no high-affinity-state footnote

Row | IC50 ([2]; IC50 in the receptor high-affinity state) [nM] | SMILES | IC50 [1] [nM] | IC50 [2, 3] [nM]
1 |  | N=C(N)NCCC[C@@H]1NC(=O)[C@@H]2C[C@@H](CN2C(=O)c2ccccc2)NC(=O)[C@H](CC(=O)O)NC(=O)CNC1=O [(If), c[-Arg-Gly-Asp-AMPRO2-]] | 0.16 ± 0.03 | 86.6 ± 5.7
2 |  | CCC(=O)N1C[C@@H]2C[C@H]1C(=O)N[C@@H](CCCNC(=N)N)C(=O)NCC(=O)N[C@@H](CC(=O)O)C(=O)N2 [(Ih), c[Arg-Gly-Asp-AMPRO4-]] | 0.03 ± 0.01 | 94 ± 13
3 |  | N=C(N)NCCC[C@@H]1NC(=O)[C@@H]2C[C@H](CN2C(=O)c2ccccc2)NC(=O)[C@H](CC(=O)O)NC(=O)CNC1=O [(Ii), c[-Arg-Gly-Asp-AMPRO5-]] | 0.91 ± 0.4 | 89.2 ± 5.4
4 | 0.88 ± 0.23 | CCCCCCCN1C[C@@H]2C[C@H]1C(=O)N[C@@H](CCCNC(=N)N)C(=O)NCC(=O)N[C@@H](CC(=O)O)C(=O)N2 [(Ip), c[-Arg-Gly-Asp-AMPRO15-]] | 0.08 ± 0.02 | 
